# US9963451B2, “Fused ring pyrimidine compound and pest control agent containing the same” (Mitsui Chemicals Agro, Inc., priority 2013, dated 2018)
# Counter-ions that a name gives are not always drawn. Like-named read-outs stand apart in the source and are kept apart here.
# Tests used:
# Format in all cases: in vivo
# Laodelphax striatellus = assay: whole plant or invertebrate; conditions: for pest or weed control at 1 ppm / pest or weed control at 3 ppm: Laodelphax striatellus, in Oryza sativa, 144 h, read-out: Insect death ratio (%)
# Experimental: Insecticidal Test Against Laodelphax striatellus
# A chemical solution diluted to have a pre-determined concentration was sprayed to young rice plant (breed: Koshihikari) followed by air drying. Then, it was added to a glass test tube (diameter of 3 cm and height of 10 cm) added with water together with ten 3-stage larvae of Laodelphax striatellus. The tube was then covered. The number of living insects was determined after 6 days and the dead insect ratio was calculated. There were two series, i.e., 10 insects per group. Meanwhile, in Table 29, when combination of two types of test chemicals are used (i.e., A and B), the combination of the two types was described as A+B, and in the concentration column (ppm), it was described as concentration of A+concentration of B.
# Callosobruchus chinensis = assay: Test Example 5: insecticidal test against Callosobruchus chinensis (petri dish dry film); conditions: 24 h, read-out: insect death ratio
# Experimental: Insecticidal Test Against Callosobruchus chinensis
# 1 ml of acetone solution in which a test compound had been diluted at a predetermined concentration was added dropwise to a petri dish having a diameter of 9 cm, and air dried, and then ten adults of Callosobruchus chinensis were released and the petri dish was covered. They were left to stand in an incubator at 25° C., and the numbers of living insects and dead insects were examined after 1 day. There was no series.
# Pyricularia oryzae = assay: whole plant or invertebrate
# Chilo suppressalis = assay: Test Example 10: insecticidal test against Chilo suppressalis (rice stem dip, single and combined chemicals); conditions: after 6 days
# Experimental: Insecticidal Test Against Chilo suppressalis
# A stem part was cut from a rice plant (breed: Koshihikari) cultivated in water and it was immersed in a chemical solution which has been diluted to have a pre-determined concentration. After air drying, it was put into a 9 cm polyethylene cup having a water-wetted filter paper laid on the bottom thereof, and 3-stage larvae of Chilo suppressalis were released and covered. They were left to stand in an incubator at 25° C., and the numbers of living insects and dead insects were examined after 6 days. There were two series, i.e., 5 insects per group. Meanwhile, in Table 30, when combination of two types of test chemicals are used (i.e., A and B), the combination of the two types was described as A+B, and in the concentration column (ppm), it was described as concentration of A+concentration of B.
# Plutella xylostella = assay: Test Example 4: insecticidal test against Plutella xylostella (cabbage leaf dip); conditions: foliar, 144 h, read-out: insect death ratio
# Experimental: Insecticidal Test Against Plutella xylostella
# A piece of a cabbage leaf was immersed for 30 seconds in a chemical solution in which the test compound had been added at a predetermined concentration, and air dried, and then put into a 7 cm polyethylene cup having a filter paper laid on the bottom thereof, and five 3-stage larvae of Plutella xylostella were released. They were left to stand in an incubator at 25° C., and the numbers of living insects and dead insects were examined after 6 days. There was no series.
# [1] = Pyricularia oryzae, 168 h, read-out: Rice blast control value
# [2] = Chilo suppressalis, 144 h, 1 ppm, read-out: Insect death ratio (%)
# [3] = Chilo suppressalis, 144 h, read-out: Insect death ratio (%)
# [4] = concentration of 1000 ppm, cabbage leaf dip, 3-stage larvae, 25° C., after 6 days
molecule,measurement,setting,value
"CC(C)N1C(=O)N(c2ccccc2)CS/C1=N\C(C)(C)C [Buprofezin, buprofezin]",pest or weed control at 1 ppm,Laodelphax striatellus; after 6 days,70%
"CSc1nc2n(Cc3ccc(Cl)nc3)c(C)c/c(=N\O)n2n1 [compound 121, 4-((6-chloropyridin-3-yl)methyl)-5-methyl-2-(methylthio)-[1,2,4]triazolo[1,5-a]pyrimidin-7(4H)-oneoxime]",pest or weed control at 1000 ppm,Callosobruchus chinensis,≥ 70%
"CC(C)OC(=O)C(C(=O)OC(C)C)=C1SCCS1 [Isoprothiolane, isoprothiolane]",pest or weed control at 6 ppm,Pyricularia oryzae; [1],97%
Cc1cc(=O)n2nc(-n3cccn3)nc2n1Cc1ccc(Cl)nc1 [compound 80],pest or weed control at 1000 ppm,Callosobruchus chinensis,≥ 70%
spinetoram,Insect death ratio (%),Chilo suppressalis; 1 ppm,100%
CC1(C)N=C(c2cnc3ccccc3c2)c2cccc(F)c2C1(F)F [EE-3],pest or weed control at 50 ppm,Pyricularia oryzae; [1],97%
"CNC(=O)c1cc(C#N)cc(C)c1NC(=O)c1cc(Br)nn1-c1ncccc1Cl [Cyantraniliprole, cyantraniliprole]",pest or weed control at 1 ppm,Chilo suppressalis; [2],80%
Cc1cc(=O)n2nc(C(C)(F)F)nc2n1Cc1ccc(Cl)nc1 [compound 59],pest or weed control at 1000 ppm,Callosobruchus chinensis,≥ 70%
Cc1cc(=O)n2nc(C(F)F)cc2n1Cc1ccc(Cl)nc1 [compound 241],pest or weed control at 1000 ppm,Plutella xylostella,≥ 70%
CCc1c(C)n(Cc2ccc(Cl)nc2)c2nc(SC)nn2c1=O [compound 25],pest or weed control at 1000 ppm,Plutella xylostella,≥ 70%
CN(C(=O)c1ccccc1)c1cccc(C(=O)Nc2c(Br)cc(C(F)(C(F)(F)F)C(F)(F)F)cc2C(F)(F)F)c1F [DD-1],pest or weed control at 0.1 ppm,Chilo suppressalis; [3],90%
spinosad,Insect death ratio (%),Chilo suppressalis; 1 ppm,70%
"Cc1cccc2sc3nncn3c12 [Tricyclazole, tricyclazole]",pest or weed control at 2 ppm,Pyricularia oryzae; [1],98%
same,pest or weed control at 200 ppm,Pyricularia oryzae; [1],97%
Cc1cc(=O)n2nc(-c3ccccc3F)nc2n1Cc1ccc(Cl)nc1 [compound 28],pest or weed control at 1000 ppm,Plutella xylostella,≥ 70%
Cc1cc(=O)n2nc(C(F)(F)F)cc2n1Cc1cnc(Cl)cc1Cl [compound 248],pest or weed control at 1000 ppm,Callosobruchus chinensis,≥ 70%
"CNC(=O)/C(=N/OC)c1ccccc1CO/N=C(C)/C(=N/OC)C(/C)=N/OC [Orysastrobin, orysastrobin]",Rice blast control value,"Pyricularia oryzae; 3.5 ppm, spots counted 7 days later",95
O=C(Nc1c(I)cc(C(F)(C(F)(F)F)C(F)(F)F)cc1C(F)(F)F)c1cccc(NC(=O)c2cccnc2Cl)c1 [DD-3],pest or weed control at 0.1 ppm,Chilo suppressalis; [3],100%
CSc1cc2n(Cc3cnc(Cl)nc3)c(C)cc(=O)n2n1 [compound 299],pest or weed control at 1000 ppm,Callosobruchus chinensis,≥ 70%
Cc1cc(=O)n2nc(OC(C)c3ccc(C(F)(F)F)cc3)nc2n1Cc1ccc(Cl)nc1 (stereo not drawn) [compound 106],pest or weed control at 1000 ppm,Plutella xylostella; [4],≥ 70%
CSc1cc2n(Cc3ccc(Cl)nc3)c(C)c(C)c(=O)n2n1 [compound 236],pest or weed control at 1000 ppm,Plutella xylostella,≥ 70%
Cc1cc(=O)n2nc([S+]([O-])CC(F)(F)F)nc2n1Cc1ccc(Cl)nc1 (stereo not drawn) [compound 189],pest or weed control at 1000 ppm,Plutella xylostella,≥ 70%
Cc1cc(=O)n2nc(C(F)(F)F)cc2n1Cc1cnc(Cl)c(F)c1 [compound 253],pest or weed control at 1000 ppm,Callosobruchus chinensis,≥ 70%
"CC[S+]([O-])c1c(C#N)nn(-c2c(Cl)cc(C(F)(F)F)cc2Cl)c1N (stereo not drawn) [Ethiprole, ethiprole]",pest or weed control at 3 ppm,"Laodelphax striatellus; 3 ppm, after 6 days",20%
"N#Cc1ccccc1NC(=O)c1snc(Cl)c1Cl [Isotianil, isotianil]",Rice blast control value,"Pyricularia oryzae; 1 ppm, spots counted 7 days later",97
CCSc1nc2n(Cc3ccc(Cl)nc3)c(C)cc(=O)n2n1 [compound 29],pest or weed control at 1000 ppm,Plutella xylostella,≥ 70%
CC1(C)N=C(c2cnc3ccccc3c2)c2cccc(F)c2C1(C)C [EE-2],pest or weed control at 50 ppm,Pyricularia oryzae; [1],95%
CN(C(=O)c1ccc(F)cc1)c1cccc(C(=O)Nc2c(I)cc(C(F)(C(F)(F)F)C(F)(F)F)cc2C(F)(F)F)c1F [DD-2],pest or weed control at 0.1 ppm,Chilo suppressalis; [3],100%
"N#Cc1nn(-c2c(Cl)cc(C(F)(F)F)cc2Cl)c(N)c1[S+]([O-])C(F)(F)F (stereo not drawn) [Fipronil, fipronil]",pest or weed control at 1 ppm,Laodelphax striatellus; after 6 days,70%
"Cc1cc(=O)n2nc(S(C)(=O)=O)nc2n1Cc1ccc(Cl)nc1 [compound 10, 4-((6-chloropyridin-3-yl)methyl)-5-methyl-2-(methylsulfonyl)-[1,2,4]triazolo[1,5-a]pyrimidin-7(4H)-one]",pest or weed control at 1000 ppm,Callosobruchus chinensis,≥ 70%
"Cc1ccc(C(=O)NC[C@@H](NC(=O)OCC(F)(F)F)C(C)C)cc1 [Tolprocarb, tolprocarb]",Rice blast control value,Pyricularia oryzae; in vivo,97
Cc1cc(=O)n2nc([S+](C)[O-])nc2n1Cc1ccc(Cl)nc1 (stereo not drawn) [compound 26],pest or weed control at 1000 ppm,Callosobruchus chinensis,≥ 70%
"COP(=O)(NC(C)=O)SC (stereo not drawn) [Acephate, acephate]",pest or weed control at 3 ppm,Laodelphax striatellus,20%
"COc1nc2n(Cc3ccc(Cl)nc3)c(C)cc(=O)n2n1 [compound 45, 4-((6-chloropyridin-3-yl)methyl)-2-methoxy-5-methyl-[1,2,4]triazolo[1,5-a]pyrimidin-7(4H)-one]",pest or weed control at 1000 ppm,Callosobruchus chinensis,≥ 70%
"C[C@@H](NC(=O)C(C#N)C(C)(C)C)c1ccc(Cl)cc1Cl (stereo partly drawn) [Diclocymet, diclocymet]",pest or weed control at 1.5 ppm,Pyricularia oryzae; [1],95%
CCSc1cc2n(Cc3cnc(Cl)c(F)c3)c(C)cc(=O)n2n1 [compound 252],pest or weed control at 1000 ppm,Callosobruchus chinensis,≥ 70%
Cc1cc(=O)n2nc(OCC(F)(F)F)nc2n1Cc1ccc(Cl)nc1 [compound 46],pest or weed control at 1000 ppm,Callosobruchus chinensis,≥ 70%
Cc1cc(=O)n2nc(SCCC(F)(F)F)nc2n1Cc1ccc(Cl)nc1 [compound 22],pest or weed control at 1000 ppm,Plutella xylostella,≥ 70%
CSc1cc2n(Cc3cnc(Cl)c(F)c3)c(C)cc(=O)n2n1 [compound 307],pest or weed control at 1000 ppm,Callosobruchus chinensis,≥ 70%
CC[S+]([O-])c1cc2n(Cc3ccc(Cl)nc3)c(C)cc(=O)n2n1 (stereo not drawn) [compound 244],pest or weed control at 1000 ppm,Callosobruchus chinensis,≥ 70%
"Cc1cc(O)no1 [Hydroxyisoxazole, hydroxyisoxazole]",Insect death ratio (%),"Laodelphax striatellus; 600 ppm, after 6 days",0%
"CNC(=O)c1cc(Cl)cc(C)c1NC(=O)c1cc(Br)nn1-c1ncccc1Cl [Chlorantraniliprole, chlorantraniliprole]",pest or weed control at 1 ppm,Chilo suppressalis; [2],80%
"CCOc1ccc(C(C)(C)COCc2cccc(Oc3ccccc3)c2)cc1 [Ethofenprox, ethofenprox]",Insect death ratio (%),Chilo suppressalis; 100 ppm,100%
same,Insect death ratio (%),"Laodelphax striatellus; 30 ppm, after 6 days",40%
"Cc1cc(C(F)(C(F)(F)F)C(F)(F)F)ccc1NC(=O)c1cccc(I)c1C(=O)NC(C)(C)CS(C)(=O)=O [Flubendiamide, flubendiamide]",pest or weed control at 1 ppm,Chilo suppressalis; [2],80%
Cc1cc(=O)n2nc(SCc3cccc(C(F)(F)F)c3)nc2n1Cc1ccc(Cl)nc1 [compound 16],pest or weed control at 1000 ppm,Plutella xylostella; [4],≥ 70%
"CSc1nc2n(Cc3ccc(Cl)nc3)c(C)cc(=S)n2n1 [compound 24, 4-((6-chloropyridin-3-yl)methyl)-5-methyl-2-(methylthio)-[1,2,4]triazolo[1,5-a]pyrimidin-7(4H)-thione]",pest or weed control at 1000 ppm,Plutella xylostella,≥ 70%
Cc1cc(=O)n2nc(S(C)(=O)=NC#N)nc2n1Cc1ccc(Cl)nc1 (stereo not drawn) [compound 76],pest or weed control at 1000 ppm,Callosobruchus chinensis,≥ 70%
CC1(C)N=C(c2cnc3ccccc3c2)c2ccccc2C1(F)F [EE-1],pest or weed control at 50 ppm,Pyricularia oryzae; [1],97%
CSc1cc2n(Cc3ccc(Cl)nc3)c(C)c(F)c(=O)n2n1 [compound 237],pest or weed control at 1000 ppm,Plutella xylostella,≥ 70%
Cc1cc(=O)n2nc(S(=O)(=O)CC(F)(F)F)nc2n1Cc1ccc(Cl)nc1 [compound 190],pest or weed control at 1000 ppm,Callosobruchus chinensis,≥ 70%
"CC(=O)Oc1c(C)c(C)nc2c(F)cc(C(C)(C)C)cc12 [Tebufloquin, tebufloquin]",Rice blast control value,"Pyricularia oryzae; 100 ppm, spots counted 7 days later",98
CCSc1cc2n(Cc3ccc(Cl)nc3)c(C)cc(=O)n2n1 [compound 243],pest or weed control at 1000 ppm,Plutella xylostella,≥ 70%
"C=CCOC1=NS(=O)(=O)c2ccccc21 [Probenazole, probenazole]",pest or weed control at 12 ppm,Pyricularia oryzae; [1],96%
CSc1nc2n(Cc3cnc(Cl)c(F)c3)c(C)cc(=O)n2n1 [compound 306],pest or weed control at 1000 ppm,Callosobruchus chinensis,≥ 70%
"CN(C)C(CSC(N)=O)CSC(N)=O [Cartap, Cartap hydrochloride]",pest or weed control at 300 ppm,"Chilo suppressalis; Chilo suppressalis, 144 h, 300 ppm, read-out: Insect death ratio (%)",90%
Cc1cc(=O)n2nc(SCCCC(F)(F)F)nc2n1Cc1ccc(Cl)nc1 [compound 23],pest or weed control at 1000 ppm,Plutella xylostella,≥ 70%
